Results as given in EPA's ToxValDB 9.5 (doi:10.2903/j.efsa.2009.297r).
≈ marks a conversion by molar mass, not a printed value. Where “and” joins values, the source holds several entries; their conditions need not be identical. Identical values can stand only once.

Key:
[1] = system: Oncorhynchus mykiss; conditions: chronic/long-term; duration: 28 days
[2] = system: Oryctolagus sp.; conditions: developmental; development
[3] = system: Coturnix coturnix
[4] = system: Apis mellifera; conditions: acute; dermal; mortality
[5] = system: Canidae; conditions: chronic; duration: 1 years; oral; Dog Other; body weight
[6] = reproductive
[7] = system: Anas platyrhynchos
[8] = system: Tagia sp.; conditions: mortality
[9] = system: Rattus norvegicus; conditions: oral
[10] = system: Adalia sp.; conditions: not reported; reproduction
[11] = system: Salmo trutta ssp. fario; conditions: acute; duration: 96 hours; mortality

Q: Which LC50 [1] does the source give for `O=C1c2ccccc2C(=O)N1SC(Cl)(Cl)Cl` [Folpet] here?
A: 0.11 µg/mL (≈ 0.371 µM)

Q: And the NOAEL [2]?
A: 10 mg/kg-day and 20 mg/kg-day

Q: What about the LC50 ([3]; acute, oral, diet, mortality) of the same compound?
A: > 1130 mg/kg-day

Q: What about the LD50 ([3]; acute, oral, mortality) of the same compound?
A: > 2510 mg/kg

Q: And the NOEC ([3]; reproduction developmental, reproduction)?
A: 78.3 mg/kg-day

Q: And the LD50 [4]?
A: > 200 µg/piece

Q: And the NOAEL [5]?
A: 10 mg/kg-day

Q: And the NOEC [6]?
A: 1500 mg/kg

Q: And the NOEC ([7]; reproductive)?
A: 90 mg/kg-day

Q: And the LC50 ([7]; short-term, oral, feed, mortality)?
A: > 746 mg/kg-day

Q: What about the LC50 ([8]; acute, duration: 14 days) of the same compound?
A: > 1000 mg/kg

Q: What about the NOEC ([8]; chronic/long-term) of the same compound?
A: 5.18 mg/kg

Q: And the LD50 ([9]; acute, mortality)?
A: > 2000 mg/kg

Q: And the NOAEL ([9]; chronic, duration: 2 years, diet, body weight)?
A: 10 mg/kg-day

Q: What about the LEL [10] of the same compound?
A: 530 g/ha

Q: What about the LC50 [11] of the same compound?
A: 0.098 µg/mL (≈ 0.33 µM)
